Source: patent publication US5449612A, “Process for identifying candida by means of chromogenic substances” (Serbio, priority 1990, dated 1995)
Read-outs that look alike come from different tables or passages of the source.

Assays:
Candida guillermondii = test: Tests on substrates against Candida guillermondii; set-up: Reading at 24 h: key to the marks not given beside the values; conditions: Table V
C. zeylanoides [1] = test: Diagnosis from isolated colonies on gelose 2/5; assay type: cell-based, Candida zeylanoides; conditions: Table VI; also: key: -: none; +: weak; ++: moderate; +++: intense; ++++: very intense
C. pseudotropicalis [2] = test: Diagnosis from isolated colonies on gelose 2/5; assay type: cell-based, Candida pseudotropicalis; conditions: Table VI; also: key: -: none; +: weak; ++: moderate; +++: intense; ++++: very intense
C. krusei [3] = test: Diagnosis from isolated colonies on gelose 2/5; assay type: cell-based, Candida krusei
Method: (§1) According to the afore-mentioned best mode of carrying out the invention, a culture medium containing the following ingredients is prepared; it is called gelose 2 below and is buffered to pH 6.0.
(§2) According to the afore-mentioned best mode of carrying out the invention, a culture medium containing the following ingredients is prepared; it is called gelose 5 below and is buffered to pH 6.0.
Several isolated strains of C. albicans, C. tropicalis, C. krusei, C. guillermondii, C. pseudotropicalis, C. parapsilosis, C. zeylanoides, T. glabrata and Trichosporon cutaneum were inoculated and incubated on the media of Examples 1 to 5. […] Part of the results obtained has been collated in Table VI below, where the TTC column relates to results of tests undertaken separately on a standard gelose medium containing TTC.
Several isolated strains of C. albicans, C. tropicalis, C. krusei, C. guillermondii and T. glabrata were inoculated and incubated on the media of Example 2 [containing either the substrate N-Ac-β-D-galactosaminide-PNP of the prior art, or the substrates H-L-PropNA.AcOH (specific for C. albicans), EM-L-Phg-L-ArgpNA.AcOH (specific for T. glabrata) and H-Gly-L-Pro-L-Arg-pNA.2AcOH (specific for C. krusei)]and of Example 5 (containing the substrate H-L-Pro-pNA.AcOH).

Tr. cutaneum [4] = test: Diagnosis from isolated colonies on gelose 2/5; assay type: cell-based, Trichosporon cutaneum; conditions: Table VI; also: key: -: none; +: weak; ++: moderate; +++: intense; ++++: very intense
Tr. cutaneum [5] = test: Diagnosis from non-isolated colonies on gelose 2/5; assay type: cell-based, Trichosporon cutaneum
C. tropicalis [6] = test: Diagnosis from non-isolated colonies on gelose 2/5; assay type: cell-based, Candida tropicalis; also: key: -: none; +: weak; ++: moderate; +++: intense; ++++: very intense
T. glabrata [7] = test: Diagnosis from non-isolated colonies on gelose 2/5; assay type: cell-based, Torulopsis glabrata; also: key: -: none; +: weak; ++: moderate; +++: intense; ++++: very intense
C. guillermondii [8] = test: Diagnosis from non-isolated colonies on gelose 2/5; assay type: cell-based, Candida guillermondii; also: key: -: none; +: weak; ++: moderate; +++: intense; ++++: very intense
C. guillermondii [9] = test: Diagnosis from isolated colonies on gelose 2/5; assay type: cell-based, Candida guillermondii; conditions: Table VI; also: key: -: none; +: weak; ++: moderate; +++: intense; ++++: very intense
C. ciferii = test: Diagnosis from non-isolated colonies on gelose 5; assay type: cell-based; conditions: Table IX, 1 strain, gelose 5, cycloheximide; also: key: -: none; +: weak; ++: moderate; +++: intense; ++++: very intense
Cr. neoformans = test: Diagnosis from non-isolated colonies on gelose 2/5; assay type: cell-based, Cryptococcus neoformans; conditions: Table VIII; also: key: -: none; +: weak; ++: moderate; +++: intense; ++++: very intense
C. parapsilosis [10] = test: Diagnosis from non-isolated colonies on gelose 2/5; assay type: cell-based, Candida parapsilosis; also: key: -: none; +: weak; ++: moderate; +++: intense; ++++: very intense
C. parapsilosis [11] = test: Diagnosis from isolated colonies on gelose 2/5; assay type: cell-based, Candida parapsilosis; conditions: Table VI; also: key: -: none; +: weak; ++: moderate; +++: intense; ++++: very intense
T. glabrata [12] = test: Diagnosis from isolated colonies on gelose 2/5; assay type: cell-based, Torulopsis glabrata; conditions: isolated colonies; also: key: -: none; +: weak; ++: moderate; +++: intense; ++++: very intense
C. pseudotropicalis [13] = test: Diagnosis from non-isolated colonies on gelose 2/5; assay type: cell-based, Candida pseudotropicalis; also: key: -: none; +: weak; ++: moderate; +++: intense; ++++: very intense
C. albicans [14] = test: Diagnosis from isolated colonies on gelose 2/5; assay type: cell-based, Candida albicans; conditions: isolated colonies; also: key: -: none; +: weak; ++: moderate; +++: intense; ++++: very intense
C. zeylanoides [15] = test: Diagnosis from non-isolated colonies on gelose 5; assay type: cell-based, Candida zeylanoides; conditions: Table IX, 1 strain, gelose 5, cycloheximide; also: key: -: none; +: weak; ++: moderate; +++: intense; ++++: very intense
Candida albicans = test: Tests on substrates against Candida albicans, colour reading on buffered gelose; assay type: cell-based; set-up: key to Specificity: interference with C. albicans: (a): interference with C. albicans (++++); (b): interference with C. krusei (++); (c): interference with C. tropicalis (++)
C. tropicalis [16] = test: Diagnosis from isolated colonies on gelose 2/5; assay type: cell-based, Candida tropicalis; conditions: isolated colonies
C. krusei [17] = test: Diagnosis from non-isolated colonies on gelose 2/5; assay type: cell-based, Candida krusei
Method: as §1, §2
A mixture of several non-isolated strains of C. albicans, C. tropicalis, C. krusei, C. guillermondii, C. pseudotropicalis, C. parapsilosis, Cryptococcus neoformaas, Torulopsis glabrata and Trichosporon cutaneum was inoculated and incubated on the culture media according to Examples 1 to 5, containing the substrate N-Ac-β-D-galactosaminide-PNP of the prior art or the substrate H-Pro-pNA.AcOH according to the invention. The results, which were obtained particularly with geloses 2 and 5, are collated in Table VIII below, where the TTC column relates to results of tests undertaken separately on a standard gelose medium containing TTC.
(§3) A mixture of several non-isolated strains of C. albicans, C. tropicalis, C. krusei, C. guillermondii, C. pseudotropicalis, C. parapsilosis, C. zeylanoides, C. ciferii, C. cerevisiae, Torulopsis glabrata and Trichosporon cutaneum was inoculated and incubated on the culture media according to Example 5, containing the substrate N-Ac-β-D-galactosaminide-PNP of the prior art or the substrate H-Pro-pNA.AcOH according to the invention.

C. albicans [18] = test: Diagnosis from non-isolated colonies on gelose 2/5; assay type: cell-based, Candida albicans
C. cerevisiae = test: Diagnosis from non-isolated colonies on gelose 5; assay type: cell-based
Method: as §2, §3

[19] = system: C. albicans, C. guillermondii, C. intermedia, C. lipolytica, C. lusitanica, C. parapsilosis, C. rugosa and C. zeylanoides; conditions: U.S. Pat. No. 4,874,695, Table IV; cited from earlier work
[20] = system: N-acetyl-β-D-glucosaminidase; conditions: Casal et al. 1983; Polachek et al. 1987; cited from earlier work
[21] = gelose 5 (maltose, cycloheximide)
[22] = Table IX, 2 strains, gelose 5, cycloheximide
[23] = Table VIII, 2 strains, gelose 2
[24] = Table VIII, gelose 5 (maltose, cycloheximide)
[25] = Table IX, 1 strain, gelose 5, cycloheximide
[26] = Table IX, 8 strains, gelose 5, cycloheximide
[27] = Table VIII, 8 strains, gelose 2
[28] = Table VI, gelose 5 (maltose, cycloheximide)
[29] = Table VII, gelose 5 with cycloheximide
[30] = Table IX, 89 strains, gelose 5, cycloheximide
[31] = Table VIII, 13 strains, gelose 2
[32] = Table IX, non-isolated colonies, 1 strain, gelose 5, cycloheximide

CC(=O)O.O=C(Nc1ccc([N+](=O)[O-])cc1)[C@@H]1CCCN1 [H-L-Pro-pNA.AcOH]
Reading at 24 h (Candida guillermondii): ++++ | Reading at t = 24 h (C. zeylanoides [1]; 1 strain, gelose 2): ++ | Reading at t = 24 h (C. zeylanoides [1]; [21]): - | Reading at t = 24 h (C. pseudotropicalis [2]; 2 strains, gelose 2): - | Reading at t = 24 h (C. pseudotropicalis [2]; [21]): - | Reading at t = 24 h (C. krusei [3]): - | Reading at t = 24 h (Tr. cutaneum [4]; 1 strain, gelose 2): + | Reading at t = 24 h (Tr. cutaneum [4]; [21]): - | Reading at t = 24 h (Tr. cutaneum [5]; [22]): - | Reading at t = 24 h (Tr. cutaneum [5]; [23]): ++ | Reading at t = 24 h (Tr. cutaneum [5]; [24]): - | Reading at t = 24 h (C. tropicalis [6]; [25]): - | Reading at t = 24 h (C. tropicalis [6]; Table VIII, 1 strain, gelose 2): - | Reading at t = 24 h (C. tropicalis [6]; [24]): - | Reading at t = 24 h (T. glabrata [7]; [26]): - | Reading at t = 24 h (T. glabrata [7]; [27]): - | Reading at t = 24 h (T. glabrata [7]; [24]): - | Reading at t = 24 h (C. guillermondii [8]; [25]): - | Reading at t = 24 h (C. guillermondii [8]; Table VIII, 1 strain, gelose 2): +++ | Reading at t = 24 h (C. guillermondii [8]; [24]): - | Reading at t = 24 h (C. guillermondii [9]; 2 strains, gelose 2): +++ | Reading at t = 24 h (C. guillermondii [9]; [21]): - | Reading at t = 24 h (C. ciferii): - | Reading at t = 24 h (Cr. neoformans; 1 strain, gelose 2): - | Reading at t = 24 h (Cr. neoformans; [21]): - | Reading at t = 24 h (C. parapsilosis [10]; [25]): - | Reading at t = 24 h (C. parapsilosis [10]; [23]): +++ | Reading at t = 24 h (C. parapsilosis [10]; [24]): - | Reading at t = 24 h (C. parapsilosis [11]; 5 strains, gelose 2): +++ | Reading at t = 24 h (C. parapsilosis [11]; [21]): - | Reading at t = 24 h (T. glabrata [12]; Table VI, 4 strains, gelose 2): - | Reading at t = 24 h (T. glabrata [12]; [28]): - | Reading at t = 24 h (T. glabrata [12]; Table VII, 9 strains, gelose 2): - | Reading at t = 24 h (T. glabrata [12]; [29]): - | Reading at t = 24 h (C. pseudotropicalis [13]; [22]): - | Reading at t = 24 h (C. pseudotropicalis [13]; Table VIII, 1 strain, gelose 2): - | Reading at t = 24 h (C. pseudotropicalis [13]; [24]): - | Reading at t = 24 h (C. albicans [14]; Table VI, 10 strains, gelose 2): ++++ | Reading at t = 24 h (C. albicans [14]; [28]): ++++ | Reading at t = 24 h (C. albicans [14]; Table VII, 6 strains, gelose 2): ++++ | Reading at t = 24 h (C. albicans [14]; [29]): ++++ | Reading at t = 24 h (C. zeylanoides [15]): - | Specificity: nonspecific for the strains of Candida albicans (Candida albicans; Table I): (a) | Reading at 24 h (Candida albicans; Table I, medium pH 6.0, YNB, glucose, agar, gentamycin, coloration or fluorescence): ++++ | Specificity: interference with C. albicans (Candida albicans; Table V): (a) | Reading at t = 24 h (C. tropicalis [16]; Table VI, 4 strains, gelose 2): - | Reading at t = 24 h (C. tropicalis [16]; [28]): - | Reading at t = 24 h (C. tropicalis [16]; Table VII, 9 strains, gelose 2): - | Reading at t = 24 h (C. tropicalis [16]; [29]): - | Reading at t = 24 h (C. krusei [17]): - | Reading at t = 24 h (C. albicans [18]; [30]): ++++ | Reading at t = 24 h (C. albicans [18]; [31]): ++++ | Reading at t = 24 h (C. albicans [18]; [24]): +++ | Reading at t = 24 h (C. cerevisiae): -

O=C(Nc1ccc([N+](=O)[O-])cc1)[C@@H]1CCCN1 [H-L-Pro-pNA]
sensitivity towards strains of Candida [19]: sensitive towards several strains of Candida

CC(=O)N[C@H]1[C@H](Oc2ccc([N+](=O)[O-])cc2)O[C@H](CO)[C@H](O)[C@@H]1O [NAc-D-galactosaminide-PNP, N-Ac-β-D-galactosaminide-PNP, reference compound]
Reading at t = 24 h (C. zeylanoides [1]; 1 strain, gelose 2): - | Reading at t = 24 h (C. pseudotropicalis [2]; 2 strains, gelose 2): - | Reading at t = 24 h (C. krusei [3]; Table VI, isolated colonies, 4 strains, gelose 2): - | Reading at t = 24 h (C. krusei [3]; Table VII, isolated colonies, 6 strains, gelose 2): - | Reading at t = 24 h (Tr. cutaneum [4]; 1 strain, gelose 2): ++ | Reading at t = 24 h (Tr. cutaneum [5]; [22]): - | Reading at t = 24 h (Tr. cutaneum [5]; [23]): - result for 1 strain and +++ result for the other strain | Reading at t = 24 h (C. tropicalis [6]; [25]): - | Reading at t = 24 h (C. tropicalis [6]; Table VIII, 1 strain, gelose 2): - | Reading at t = 24 h (T. glabrata [7]; [26]): - | Reading at t = 24 h (T. glabrata [7]; [27]): - | Reading at t = 24 h (C. guillermondii [8]; [25]): - | Reading at t = 24 h (C. guillermondii [8]; Table VIII, 1 strain, gelose 2): - | Reading at t = 24 h (C. guillermondii [9]; 2 strains, gelose 2): - | Reading at t = 24 h (C. ciferii): - | Reading at t = 24 h (Cr. neoformans; 1 strain, gelose 2): - | Reading at t = 24 h (C. parapsilosis [10]; [25]): - | Reading at t = 24 h (C. parapsilosis [10]; [23]): - | Reading at t = 24 h (C. parapsilosis [11]; 5 strains, gelose 2): - | Reading at t = 24 h (T. glabrata [12]; Table VI, 4 strains, gelose 2): - | Reading at t = 24 h (T. glabrata [12]; Table VII, 9 strains, gelose 2): - | Reading at t = 24 h (C. pseudotropicalis [13]; [22]): - | Reading at t = 24 h (C. pseudotropicalis [13]; Table VIII, 1 strain, gelose 2): - | Reading at t = 24 h (C. albicans [14]; Table VI, 10 strains, gelose 2): ++++ | Reading at t = 24 h (C. albicans [14]; Table VII, 6 strains, gelose 2): +++ | Reading at t = 24 h (C. zeylanoides [15]): - | Reading at t = 24 h (C. tropicalis [16]; Table VI, 4 strains, gelose 2): 3 gave the result - and 1 the result ++ | Reading at t = 24 h (C. tropicalis [16]; Table VII, 9 strains, gelose 2): positive (++) for only 1 of the 9 strains tested and negative | Reading at t = 24 h (C. krusei [17]; [32]): - | Reading at t = 24 h (C. krusei [17]; Table VIII, non-isolated colonies, 6 strains, gelose 2): - | Reading at t = 24 h (C. albicans [18]; [30]): ++++ and negative for 2 out of 89 strains | Reading at t = 24 h (C. albicans [18]; [31]): ++++ | Reading at t = 24 h (C. cerevisiae; [32]): -

CC(=O)N[C@H]1[C@H](Oc2ccc3ccccc3c2)O[C@H](CO)[C@@H](O)[C@@H]1O [β-naphthyl-N-acetyl-β-D-glucosaminide]
reaction with isolated strains [20]: positive reaction
